# Data as given in patent US5480867A, “Glucagon analogs with serine replacements” (The Rockefeller University, priority 1994, dated 1996).
# Residues, ends and D or L forms follow the SMILES beside them. No end group written: not given here.
# Key:
# adenylate cyclase [1] = settings: for % Relative Activity: adenylate cyclase activity relative to glucagon, liver membranes, analogs measured as amides; for pA2: negative logarithm of antagonist concentration reducing response to 1 unit agonist to that of 0.5 unit, measured as amides
# Method: Adenylate Cyclase Assay. The assay on liver membranes was performed according to Salomon et al. [Salomon, Y., Londos, C. & rodgell, M. Anal. Biochem. 58, 541, 548 (1974)]. The released cAMP was mixed with [8-^3 H]cAMP measured with a high affinity cAMP binding protein.
# The purpose of the adenylate cyclase assay is to measure the ability of the compound under test to stimulate the activity of adenylate cyclase. The assays are used to measure relative potency, maximum activity and inhibition index.
# The inhibition index, defined above, was determined from adenylate cyclase assays by two different protocols.
# 1. A glucagon standard curve for cAMP vs glucagon concentration was established. Then another glucagon assay curve was measured in the presence of a constant amount of antagonist.
# 2. A series of tubes were set up containing an amount of glucagon which will produce 90% of maximum response. Increasing amounts of antagonist were then added and the concentration that reduced the response to 45% of maximum was determined.
# adenylate cyclase [2] = settings: background statement; cited from earlier work
# glucagon receptor = glucagon receptor (Homo sapiens, UniProt P47871); settings: background statement; cited from earlier work
# glucagon receptor, sequence (P47871 26-477, species assumed): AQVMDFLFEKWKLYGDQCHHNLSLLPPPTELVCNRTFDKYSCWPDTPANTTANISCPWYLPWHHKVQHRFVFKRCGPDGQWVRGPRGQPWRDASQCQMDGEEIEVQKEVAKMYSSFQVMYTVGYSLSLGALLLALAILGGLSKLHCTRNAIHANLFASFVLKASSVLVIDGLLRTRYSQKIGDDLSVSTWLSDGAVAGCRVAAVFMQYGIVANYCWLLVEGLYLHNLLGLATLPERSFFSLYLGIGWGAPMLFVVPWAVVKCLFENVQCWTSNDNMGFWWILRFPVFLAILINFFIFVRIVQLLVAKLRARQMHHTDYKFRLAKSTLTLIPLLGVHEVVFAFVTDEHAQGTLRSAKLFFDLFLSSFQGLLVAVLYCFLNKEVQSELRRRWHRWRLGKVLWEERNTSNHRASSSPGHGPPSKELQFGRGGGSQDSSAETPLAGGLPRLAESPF
Compound,% Relative Activity (adenylate cyclase [1]) [%],pA2 (adenylate cyclase [1]),activation of adenylate cyclase (adenylate cyclase [2]),binding to the glucagon receptor (glucagon receptor)
"CCCC[C@H](NC(=O)[C@H](CO)NC(=O)[C@@H](NC(=O)[C@H](Cc1ccccc1)NC(=O)[C@@H](NC(=O)CNC(=O)[C@H](CCC(N)=O)NC(=O)[C@H](CO)NC(=O)[C@@H](N)Cc1c[nH]cn1)[C@@H](C)O)[C@@H](C)O)C(=O)N[C@@H](Cc1ccc(O)cc1)C(=O)N[C@@H](C)C(=O)N[C@@H](CCCCN)C(=O)N[C@@H](Cc1ccc(O)cc1)C(=O)N[C@@H](CC(C)C)C(=O)N[C@@H](CC(=O)O)C(=O)N[C@@H](CCC(N)=O)C(=O)N[C@@H](CCCNC(=N)N)C(=O)N[C@@H](CCCNC(=N)N)C(=O)N[C@@H](C)C(=O)N[C@@H](CCC(N)=O)C(=O)N[C@@H](CC(=O)O)C(=O)N[C@@H](Cc1ccccc1)C(=O)N[C@H](C(=O)N[C@@H](CCC(N)=O)C(=O)N[C@@H](Cc1c[nH]c2ccccc12)C(=O)N[C@@H](CC(C)C)C(=O)N[C@@H](CCSC)C(=O)N[C@@H](CC(N)=O)C(=O)N[C@H](C(N)=O)[C@@H](C)O)C(C)C [Analog 1, Nle^9 Ala^11 Gln^16] (HELM PEPTIDE1{H.S.Q.G.T.F.T.S.[Nle].Y.A.K.Y.L.D.Q.R.R.A.Q.D.F.V.Q.W.L.M.N.T.[am]}$$$$V2.0)",0.003,8.7,,
"SQGTFTSEYAKYLDARRAQEFVQWLMNT-NH2 [Analog 5, des-His^1 Glu^9 Ala^11 Ala^16 Glu^21]",0.016,8.5,,
Nα-trinitrophenyl [12-homoarginine]glucagon,,,without significant activation of adenylate cyclase,does bind to the glucagon receptor
"CCCC[C@H](NC(=O)[C@H](CO)NC(=O)[C@@H](NC(=O)[C@H](Cc1ccccc1)NC(=O)[C@@H](NC(=O)CNC(=O)[C@H](CCC(N)=O)NC(=O)[C@@H](N)CO)[C@@H](C)O)[C@@H](C)O)C(=O)N[C@@H](Cc1ccc(O)cc1)C(=O)N[C@@H](C)C(=O)N[C@@H](CCCCN)C(=O)N[C@@H](Cc1ccc(O)cc1)C(=O)N[C@@H](CC(C)C)C(=O)N[C@@H](CC(=O)O)C(=O)N[C@@H](C)C(=O)N[C@@H](CCCNC(=N)N)C(=O)N[C@@H](CCCNC(=N)N)C(=O)N[C@@H](C)C(=O)N[C@@H](CCC(N)=O)C(=O)N[C@@H](CC(=O)O)C(=O)N[C@@H](Cc1ccccc1)C(=O)N[C@H](C(=O)N[C@@H](CCC(N)=O)C(=O)N[C@@H](Cc1c[nH]c2ccccc12)C(=O)N[C@@H](CC(C)C)C(=O)N[C@@H](CCSC)C(=O)N[C@@H](CC(N)=O)C(=O)N[C@H](C(N)=O)[C@@H](C)O)C(C)C [Analog 3, des-His^1 Nle^9 Ala^11 Ala^16] (HELM PEPTIDE1{S.Q.G.T.F.T.S.[Nle].Y.A.K.Y.L.D.A.R.R.A.Q.D.F.V.Q.W.L.M.N.T.[am]}$$$$V2.0)",0.0043,8.4,,
"CCCC[C@H](NC(=O)[C@H](CO)NC(=O)[C@@H](NC(=O)[C@H](Cc1ccccc1)NC(=O)[C@@H](NC(=O)CNC(=O)[C@H](CCC(N)=O)NC(=O)[C@@H](N)CO)[C@@H](C)O)[C@@H](C)O)C(=O)N[C@@H](Cc1ccc(O)cc1)C(=O)N[C@@H](C)C(=O)N[C@@H](CCCCN)C(=O)N[C@@H](Cc1ccc(O)cc1)C(=O)N[C@@H](CC(C)C)C(=O)N[C@@H](CC(=O)O)C(=O)N[C@@H](CCC(N)=O)C(=O)N[C@@H](CCCNC(=N)N)C(=O)N[C@@H](CCCNC(=N)N)C(=O)N[C@@H](C)C(=O)N[C@@H](CCC(N)=O)C(=O)N[C@@H](CC(=O)O)C(=O)N[C@@H](Cc1ccccc1)C(=O)N[C@H](C(=O)N[C@@H](CCC(N)=O)C(=O)N[C@@H](Cc1c[nH]c2ccccc12)C(=O)N[C@@H](CC(C)C)C(=O)N[C@@H](CCSC)C(=O)N[C@@H](CC(N)=O)C(=O)N[C@H](C(N)=O)[C@@H](C)O)C(C)C [Analog 4, des-His^1 Nle^9 Ala^11 Gln^16] (HELM PEPTIDE1{S.Q.G.T.F.T.S.[Nle].Y.A.K.Y.L.D.Q.R.R.A.Q.D.F.V.Q.W.L.M.N.T.[am]}$$$$V2.0)",0.0011,8.4,,
"CCCC[C@H](NC(=O)[C@H](CO)NC(=O)[C@@H](NC(=O)[C@H](Cc1ccccc1)NC(=O)[C@@H](NC(=O)CNC(=O)[C@H](CCC(N)=O)NC(=O)[C@@H](N)CO)[C@@H](C)O)[C@@H](C)O)C(=O)N[C@@H](Cc1ccc(O)cc1)C(=O)N[C@@H](CO)C(=O)N[C@@H](CCCCN)C(=O)N[C@@H](Cc1ccc(O)cc1)C(=O)N[C@@H](CC(C)C)C(=O)N[C@@H](CC(=O)O)C(=O)N[C@@H](C)C(=O)N[C@@H](CCCNC(=N)N)C(=O)N[C@@H](CCCNC(=N)N)C(=O)N[C@@H](C)C(=O)N[C@@H](CCC(N)=O)C(=O)N[C@@H](CC(=O)O)C(=O)N[C@@H](Cc1ccccc1)C(=O)N[C@H](C(=O)N[C@@H](CCC(N)=O)C(=O)N[C@@H](Cc1c[nH]c2ccccc12)C(=O)N[C@@H](CC(C)C)C(=O)N[C@@H](CCSC)C(=O)N[C@@H](CC(N)=O)C(=O)N[C@H](C(N)=O)[C@@H](C)O)C(C)C [Analog 2, des-His^1 Nle^9 Ala^16] (HELM PEPTIDE1{S.Q.G.T.F.T.S.[Nle].Y.S.K.Y.L.D.A.R.R.A.Q.D.F.V.Q.W.L.M.N.T.[am]}$$$$V2.0)",0.001,8.4,,
